We go through 27 molecules from patent US20250388593A1 (MITSUBISHI TANABE PHARMA CORPORATION, priority 2023, published 2025).

Molecules are shown by their SMILES. A value given as a limit tells only on which side of the number the result lay.

CRBN truncate (318-426), sequence (Q96SW2 318-426): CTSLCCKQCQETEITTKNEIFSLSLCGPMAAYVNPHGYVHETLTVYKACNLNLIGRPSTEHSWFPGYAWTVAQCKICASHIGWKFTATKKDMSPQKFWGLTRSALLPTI

The target of the assay is CRBN truncate (318-426) (Homo sapiens (Human), UniProt Q96SW2). Kind of assay: Measurement of molecular interactions using surface plasmon resonance (SPR), Biacore T200. The assay is classed as binding. To be noted: 25° C., immobilized CRBN truncate, upper limit of measurement 200 μM. The procedure, abridged:
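C-terminally Avi-tagged CRBN (318-426) captured on a streptavidin SA chip on a Biacore T200. Running buffer 10 mM HEPES pH 7.5, 150 mM NaCl, 1 mM TCEP, 0.005% Tween 20, 2% DMSO; 60 s contact, 120 s dissociation.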
For orientation: Surface plasmon resonance follows binding to a sensor surface in real time, without labels.
The Kd is the equilibrium constant for the complex coming apart. With `NC(=O)c1nn(-c2ccc(C(=O)NCCOCCOCCNC(=O)c3ccc(N4CCC5(CCCC(=O)NC5=O)CC4=O)nc3)cc2)cc1NC(=O)c1coc(-c2ccnc(NCC3CC3)c2)n1` (stereo not drawn) [Example 143, N-[3-Carbamoyl-1-[4-[2-[2-[2-[[6-(4,7,9-trioxo-3,8-diazaspiro [5.6]dodecan-3-yl)pyridine-3-carbonyl]amino]ethoxy]ethoxy]ethylcarbamoyl]phenyl]pyrazol-4-yl]-2-[2-(cyclopropylmethylamino)-4-pyridyl]oxazole-4-carboxamide], the Kd is less than 50 µM. `NC(=O)c1nn(-c2ccc(C(=O)NCCOCCOCCNC(=O)CN3CCC4(CCCC(=O)NC4=O)CC3=O)cc2)cc1NC(=O)c1coc(-c2ccnc(NCC3CC3)c2)n1` (stereo not drawn) [Example 144, N-[3-Carbamoyl-1-[4-[2-[2-[2-[[2-(4,7,9-trioxo-3,8-diazaspiro [5.6]dodecan-3-yl)acetyl]amino]ethoxy]ethoxy]ethylcarbamoyl]phenyl]pyrazol-4-yl]-2-[2-(cyclopropylmethylamino)-4-pyridyl]oxazole-4-carboxamide] displayed a Kd of less than 50 µM.

Consider `CC(C)(C)OC(=O)NCCCCCCCc1cn(C2CCCC(=O)NC2=O)nn1` (stereo not drawn) [Example 147, tert-Butyl N-[7-[1-(2,7-dioxoazepan-3-yl)triazol-4-yl]heptyl]carbamate], for which the Kd is not below 100 µM. For `O=C1CCCC(n2cc(CCCCCCCC(=O)OCc3ccccc3)nn2)C(=O)N1` (stereo not drawn) [Example 148, Benzyl 8-[1-(2,7-dioxoazepan-3-yl)triazol-4-yl]octanoate] the value was 50 to 100 µM. Regarding `CC(C)(C)OC(=O)COc1ccccc1-c1cn(C2CCCC(=O)NC2=O)nn1` (stereo not drawn) [Example 149, tert-Butyl 2-[2-[1-(2,7-dioxoazepan-3-yl)triazol-4-yl]phenoxy]acetate], the Kd is not below 100 µM. For `CC(C)(C)OC(=O)NCCCCCCc1ccc(-c2cn(C3CCCC(=O)NC3=O)nn2)cc1` (stereo not drawn) [Example 150, tert-Butyl N-[6-[4-[1-(2,7-dioxoazepan-3-yl)triazol-4-yl]phenyl]hexyl]carbamate] the value was not below 100 µM. For `Cn1ccc2c(C(=O)N3CCC4(CCCC(=O)NC4=O)C3)cccc21` (stereo not drawn) [Example 151, 2-(1-Methylindole-4-carbonyl)-2,7-diazaspiro [4.6]undecane-6,8-dione] the value was not below 100 µM; for `O=C1CCCC2(CCN(C(=O)c3ccc4scnc4c3)C2)C(=O)N1` (stereo not drawn) [Example 152, 2-(1,3-Benzothiazole-5-carbonyl)-2,7-diazaspiro[4.6]undecane-6,8-dione], not below 100 µM. With `O=C1CCCC2(CCN(C(=O)c3cnn4ccccc34)C2)C(=O)N1` (stereo not drawn) [Example 153, 2-(Pyrazolo[1,5-a]pyridine-3-carbonyl)-2,7-diazaspiro[4.6]undecane-6,8-dione] the figure was not below 100 µM; with `O=C1CCCC2(CCN(C(=O)c3nc4ccccc4o3)C2)C(=O)N1` (stereo not drawn) [Example 154, 2-(1,3-Benzoxazole-2-carbonyl)-2,7-diazaspiro[4.6]undecane-6,8-dione], not below 100 µM. Molecule `Nc1ccc(C(=O)N2CCC3(CCCC(=O)NC3=O)C2)cc1` (stereo not drawn) [Example 155, 2-(4-Aminobenzoyl)-2,7-diazaspiro[4.6]undecane-6,8-dione] returned a Kd not below 100 µM.

`Cc1ccc(NC(=O)NCc2ccccc2C(=O)N2CCC3(CCCC(=O)NC3=O)C2)cc1Cl` (stereo not drawn) [Example 156, 1-(3-Chloro-4-methylphenyl)-3-[[2-(6,8-dioxo-2,7-diazaspiro[4.6]undecane-2-carbonyl)phenyl]methyl]urea] gave a Kd not below 100 µM. For `Cc1ccc(NC(=O)NCc2ccc(C(=O)N3CCC4(CCCC(=O)NC4=O)C3)cc2)cc1Cl` (stereo not drawn) [Example 157, 1-(3-Chloro-4-methylphenyl)-3-[[4-(6,8-dioxo-2,7-diazaspiro[4.6]undecane-2-carbonyl)phenyl]methyl]urea] the value was less than 50 µM. With `CC(C)(C)OC(=O)NCCCCCCc1cccc(C(=O)N2CCC3(CCCC(=O)NC3=O)C2)c1` (stereo not drawn) [Example 158, tert-Butyl N-[6-[3-(6,8-dioxo-2,7-diazaspiro[4.6]undecane-2-carbonyl)phenyl]hexyl]carbamate] the figure was 50 to 100 µM; with `CC(C)(C)OC(=O)NCCCCCCc1ccccc1C(=O)N1CCC2(CCCC(=O)NC2=O)C1` (stereo not drawn) [Example 159, tert-ButylN-[6-[2-(6,8-dioxo-2,7-diazaspiro[4.6]undecane-2-carbonyl)phenyl]hexyl]carbamate], not below 100 µM. With `CC(C)(C)OC(=O)NCCCCCCc1ccc(C(=O)N2CCC3(CCCC(=O)NC3=O)C2)cc1Cl` (stereo not drawn) [Example 160, tert-Butyl N-[6-[2-chloro-4-(6,8-dioxo-2,7-diazaspiro[4.6]undecane-2-carbonyl)phenyl]hexyl]carbamate] the figure was 50 to 100 µM.

As to `CC(C)(C)OC(=O)NCCCCCCc1cccc2c(C(=O)N3CCC4(CCCC(=O)NC4=O)C3)cccc12` (stereo not drawn) [Example 161, tert-Butyl N-[6-[5-(6,8-dioxo-2,7-diazaspiro[4.6]undecane-2-carbonyl)naphthalen-1-yl]hexyl]carbamate], the Kd fell in the range of 50 to 100 µM. For `CC(C)(C)OC(=O)NCCCCCCn1ccc2c(C(=O)N3CCC4(CCCC(=O)NC4=O)C3)cccc21` (stereo not drawn) [Example 162, tert-Butyl N-[6-[4-(6,8-dioxo-2,7-diazaspiro [4.6]undecane-2-carbonyl)indol-1-yl]hexyl]carbamate] the value was 50 to 100 µM.

Take `O=C1NC(=O)C2(Nc3cccc(Br)c3)CCC1CC2` [Example 165, 1-(3-Bromoanilino)-3-azabicyclo [3.2.2]nonane-2,4-dione]: the Kd is not below 100 µM.

Regarding `O=C1NC(=O)C2(c3ccc(Br)cc3)CCC1CC2` [Example 167, 1-(4-Bromophenyl)-3-azabicyclo [3.2.2]nonane-2,4-dione], the Kd was not below 100 µM. With `CC(C)(C)OC(=O)N1CCC(c2cnc(N3CCC4(CCCC(=O)NC4=O)C3)nc2)CC1` (stereo not drawn) [Example 168-2, tert-Butyl 4-[2-(6,8-dioxo-2,7-diazaspiro [4.6]undecan-2-yl)pyrimidin-5-yl]piperidine-1-carboxylate] the figure was less than 50 µM; with `COC(=O)c1cc2c(N3CCC4(CCCC(=O)NC4=O)C3)ncnc2s1` (stereo not drawn) [Example 176, Methyl 4-(6,8-dioxo-2,7-diazaspiro[4.6]undecan-2-yl)thieno[2,3-d]pyrimidine-6-carboxylate], less than 50 µM. Molecule `N#Cc1cc([N+](=O)[O-])ccc1N1CCC2(CCCC(=O)NC2=O)C1` (stereo not drawn) [Example 177, 2-(6,8-dioxo-2,7-diazaspiro[4.6]undecan-2-yl)-5-nitrobenzonitrile] came in with an equilibrium dissociation constant (Kd) of 50 to 100 µM.

In turn, `CC(=O)N1CCc2nc(N3CCC4(CCCC(=O)NC4=O)C3)ncc2C1` (stereo not drawn) [Example 178, 2-(6-Acetyl-7,8-dihydro-5H-pyrido[4,3-d]pyrimidin-2-yl)-2,7-diazaspiro[4.6]undecane-6,8-dione] showed a Kd of less than 50 µM. On to `N#Cc1ccc(N2CCC3(CCCC(=O)NC3=O)C2)cc1` (stereo not drawn) [Example 179, 4-(6,8-Dioxo-2,7-diazaspiro[4.6]undecan-2-yl)benzonitrile], for which the Kd was less than 50 µM. With `Cn1c(C(=O)OC(C)(C)C)cc2c(N3CCC4(CCCC(=O)NC4=O)C3)ncnc21` (stereo not drawn) [Example 180, tert-Butyl 4-(6,8-dioxo-2,7-diazaspiro[4.6]undecan-2-yl)-7-methylpyrrolo[2,3-d]pyrimidine-6-carboxylate] the figure was 50 to 100 µM; with `Nc1nccc(N2CCC3(CCCC(=O)NC3=O)C2)n1` (stereo not drawn) [Example 182, 2-(2-Aminopyrimidin-4-yl)-2,7-diazaspiro[4.6]undecane-6,8-dione], not below 100 µM.
